According to PMC2928581 (Nature communications, 2010):

Target: TRPML1 (ML1) (Mus musculus, UniProt Q99J21)
Assay: whole-endolysosome patch clamp, current activation
Type: biochemical

TRPML1 (ML1), sequence (Q99J21 whole entry): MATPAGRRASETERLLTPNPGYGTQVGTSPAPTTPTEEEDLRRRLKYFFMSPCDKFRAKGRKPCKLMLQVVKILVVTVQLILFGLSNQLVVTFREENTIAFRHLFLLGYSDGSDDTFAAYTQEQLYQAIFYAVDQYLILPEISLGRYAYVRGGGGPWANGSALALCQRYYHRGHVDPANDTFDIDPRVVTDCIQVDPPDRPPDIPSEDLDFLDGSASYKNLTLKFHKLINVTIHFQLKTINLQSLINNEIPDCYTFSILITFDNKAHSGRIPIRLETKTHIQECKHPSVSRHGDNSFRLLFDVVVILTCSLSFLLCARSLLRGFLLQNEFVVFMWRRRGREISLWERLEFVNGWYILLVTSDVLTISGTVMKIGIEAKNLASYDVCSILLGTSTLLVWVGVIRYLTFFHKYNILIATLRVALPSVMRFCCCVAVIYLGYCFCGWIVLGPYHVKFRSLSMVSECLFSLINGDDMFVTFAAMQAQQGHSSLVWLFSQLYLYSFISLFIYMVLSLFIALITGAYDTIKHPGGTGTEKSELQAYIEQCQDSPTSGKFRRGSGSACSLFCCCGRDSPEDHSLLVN

CCCCCCCC(=O)OC[C@H](COP(=O)(O)O[C@@H]1[C@H](O)[C@H](OP(=O)(O)O)[C@@H](O)[C@H](OP(=O)(O)O)[C@H]1O)OC(=O)CCCCCCC [PI(3,5)P2 (diC8)] gave an EC50 of 48 ± 14 nM.
